Laboratory results taken from US20030171545A1, “Novel Protein” (priority 1999, published 2003).
“Also recorded” adds a separate entry of the source.

Assays:
LTRGW1 [1] = molecular target: T1, LTRGW1 (Homo sapiens, UniProt Q9NPC1); details: leukotriene binding to LTRGW1; Kamohara et al; cited from earlier work
T1 sequence (Q9NPC1 1-358): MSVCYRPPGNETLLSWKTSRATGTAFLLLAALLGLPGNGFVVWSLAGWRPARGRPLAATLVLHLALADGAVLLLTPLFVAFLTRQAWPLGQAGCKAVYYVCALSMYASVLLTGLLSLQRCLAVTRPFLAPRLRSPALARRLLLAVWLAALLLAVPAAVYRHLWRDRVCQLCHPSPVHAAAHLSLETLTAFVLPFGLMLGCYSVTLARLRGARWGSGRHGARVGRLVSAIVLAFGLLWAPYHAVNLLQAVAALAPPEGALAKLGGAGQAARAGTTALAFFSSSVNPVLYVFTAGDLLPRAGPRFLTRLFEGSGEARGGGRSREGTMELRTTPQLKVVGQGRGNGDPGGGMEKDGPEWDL

LTRGW1 [2] = assay: FLIPR intracellular calcium response to LTB4, CHO cells transfected with LTRGW1 alone; format: cell-based, human
Method: […] Responses to LTB4 (between 10^−10 and 10^−7 M) were measured using a FLIPR assay (Fluorescence Imaging Plate Reader—Molecular Devices) and values were normalised relative to the luciferase reading.

BLTR/LTRGW1 = assay: FLIPR intracellular calcium response to LTB4, CHO cells co-transfected with BLTR and LTRGW1; format: cell-based, human
Method: (§1) […] total DNA was transfected into CHO cells using the following transfection mix: 5 μg BLTR, pcDNA3 as needed to keep constant the amount of total DNA used, 1 μg pCMV-luciferase and BLTR-2 at various concentration. Responses to LTB4 (between 10^−10 and 10^−7 M) were measured using a FLIPR assay (Fluorescence Imaging Plate Reader—Molecular Devices) and values were normalised relative to the luciferase reading.

[3] = system: Mock transfected CHO cells; assay: FLIPR intracellular calcium response to LTB4, mock transfected CHO cells; format: cell-based; details: LTB4 10^-10 to 10^-7 M, normalised to luciferase
Method: as §1

LTRGW1 [4] = molecular target: T1, LTRGW1; details: Kamohara et al; cited from earlier work
BLTR = molecular target: T2, BLTR (Homo sapiens, UniProt Q15722); assay: FLIPR intracellular calcium response to LTB4, CHO cells transfected with BLTR; format: cell-based; details: LTB4 10^-10 to 10^-7 M
T2 construct: expressed in transfected cells; host or cells: CHO
Method: as §1

LTRGW1 [5] = molecular target: T1, LTRGW1; details: Yokomizo et al; cited from earlier work
[6] = molecular target: T3, BLTR and LTRGW1 co-expressed (Homo sapiens, UniProt Q15722+Q9NPC1); assay: [3H]LTB4 binding to membranes of transfected CHO cells, scintillation proximity assay; details: [3H]LTB4, membranes of transfected CHO cells; compared with BLTR or LTRGW1 alone; FIG. 2
T3 construct: expressed in transfected cells; host or cells: CHO
Method: CHO cells were transfected with DNA as described in Example 1. [^3H] LTB4 binding to membrane preparations from transfected cells was measured using wheat germ agglutinin beads in a scintillation proximity assay. The assay was carried out in 50: g Hepes 20: g MgCl2 in a total assay volume of 100: g. [^3H] LTB4 was used to measure total binding. [^3H] LTB4 was then displaced with unlabelled LTB4 to measure non-specific binding (NSB). The binding of LTB4 to cells expressing BLTR cells co-expressing BLTR and LTRGW1 and cells expressing LTRGW1 is illustrated in FIG. 2.

T2 sequence (Q15722 whole entry): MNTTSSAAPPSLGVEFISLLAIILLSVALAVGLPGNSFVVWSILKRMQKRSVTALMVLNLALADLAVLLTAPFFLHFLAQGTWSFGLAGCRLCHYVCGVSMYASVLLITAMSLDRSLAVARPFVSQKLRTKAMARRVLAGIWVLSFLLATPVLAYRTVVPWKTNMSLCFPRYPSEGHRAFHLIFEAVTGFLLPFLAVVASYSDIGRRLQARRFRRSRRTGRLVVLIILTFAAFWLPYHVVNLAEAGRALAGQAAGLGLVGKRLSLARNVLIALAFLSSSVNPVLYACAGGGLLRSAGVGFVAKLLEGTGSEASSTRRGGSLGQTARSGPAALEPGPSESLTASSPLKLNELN
T3 sequence (Q15722 whole entry, one chain of several): as the sequence (Q15722 whole entry) above

CCCCC/C=C\C[C@H](O)/C=C/C=C/C=C\[C@@H](O)CCCC(=O)O [12-epi-LTB4]
Forskolin-stimulated intracellular cAMP accumulation (LTRGW1 [1]): inhibition

CCCCCCCC[C@H](O)/C=C/C=C\C=C\[C@H](O)CCCC(=O)O [LTB3]
Forskolin-stimulated intracellular cAMP accumulation (LTRGW1 [1]): inhibition

CCCCC/C=C\C[C@@H](O)/C=C/C=C/C=C\[C@@H](O)CCCC(=O)O [LTB4]
Response to LTB4 (LTRGW1 [2]; CHO cells transfected with LTRGW1(274)): Inactive
Response to LTB4 (LTRGW1 [2]; CHO cells transfected with LTRGW1(275)): Inactive
Response to LTB4 (LTRGW1 [2]; CHO cells transfected with LTRGW1(276)): Inactive
Mobilisation of intracellular calcium in response to LTB4 (LTRGW1 [2]; LTRGW1 expressed alone in CHO cells): does not induce a detectable mobilisation of intracellular calcium
Response to LTB4 (BLTR/LTRGW1; CHO cells transfected with BLTR/LTRGW1(276), FLIPR): Active
Response of BLTR to LTB4 when LTRGW1 is co-expressed (BLTR/LTRGW1; compared with BLTR alone, increase proportional to amount of LTRGW1 in transfection mix, FIG. 1): increased
Response to LTB4 [3]: Inactive
Chemotaxis (LTRGW1 [4]): induces chemotaxis
Response to LTB4 (BLTR): Active
Forskolin-stimulated intracellular cAMP accumulation (LTRGW1 [1]): inhibition
Cellular calcium (LTRGW1 [5]): increases cellular calcium; also recorded: increases intracellular calcium
LTB4 binding to cells co-expressing BLTR and LTRGW1 [6]: enhancement

CC/C=C\C/C=C\C[C@@H](O)/C=C/C=C/C=C\[C@@H](O)CCCC(=O)O [LTB5]
Forskolin-stimulated intracellular cAMP accumulation (LTRGW1 [1]): inhibition
